Reference: US10316038B2, “Pyrrolopyrimidine ITK inhibitors for treating inflammation and cancer” (ACLARIS THERAPEUTICS, INC., priority 2017, dated 2019)
Read-outs that look alike come from different tables or passages of the source.

How the values were obtained:
[1] = biological target: T1, ITK (Homo sapiens, UniProt Q08881); assay: ITK inhibitor binding potency (LanthaScreen competitive binding assay); conditions: TR-FRET competitive binding, 10 nM ITK, 50 nM kinase tracer-236; pre-incubation condition not given; read-out: ITK Inhibition IC50
T1 sequence (Q08881 1-620): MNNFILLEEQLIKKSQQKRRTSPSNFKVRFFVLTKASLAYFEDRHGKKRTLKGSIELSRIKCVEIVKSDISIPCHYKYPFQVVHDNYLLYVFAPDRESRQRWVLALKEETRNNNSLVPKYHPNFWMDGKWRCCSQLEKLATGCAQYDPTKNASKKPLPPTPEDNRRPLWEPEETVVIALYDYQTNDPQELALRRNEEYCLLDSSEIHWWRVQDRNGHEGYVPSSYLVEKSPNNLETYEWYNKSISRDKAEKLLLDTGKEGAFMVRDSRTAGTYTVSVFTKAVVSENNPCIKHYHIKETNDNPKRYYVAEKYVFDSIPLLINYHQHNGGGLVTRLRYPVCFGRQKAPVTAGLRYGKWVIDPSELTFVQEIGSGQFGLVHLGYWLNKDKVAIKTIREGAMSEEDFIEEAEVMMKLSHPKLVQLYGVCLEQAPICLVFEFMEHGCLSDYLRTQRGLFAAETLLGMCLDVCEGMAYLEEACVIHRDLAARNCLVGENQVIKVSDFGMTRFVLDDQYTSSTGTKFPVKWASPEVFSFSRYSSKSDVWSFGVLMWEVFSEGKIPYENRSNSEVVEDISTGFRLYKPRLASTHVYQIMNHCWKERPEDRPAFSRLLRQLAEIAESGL
From the text: The ability of candidate compounds to interact with ITK is quantitated by a competitive binding assay using the LanthaScreen technology developed by Life Technologies. This assay is based on the binding of a proprietary, Alexa Fluor™ 647-labeled, ATP-competitive kinase inhibitor (kinase tracer-236) to the ITK expression construct in the presence of a Europium-conjugated antibody, resulting in a FRET (fluorescence resonance energy transfer) signal. Displacement of the kinase tracer by compound results in a lower emission ratio upon excitation of the Europium chelate. Candidate compounds are designed as potential irreversible inhibitors of ITK, capable of ligating to an active site cysteine residue resulting in time dependent covalent binding. The time dependent nature of irreversible inhibition is investigated by performing the binding assay with and without a pre-incubation of compound and ITK. […] The inhibitory potency of candidate compounds is measured in 20 mM HEPES pH 7.5, 10 mM MgCl2, 0.01% BSA, 0.0005% Tween-20, and 2% DMSO in the presence of 10 nM ITK, 2 nM Eu-anti-GST antibody, and 50 nM kinase tracer-236 using a 384-well plate format. Background signal is defined in the absence of ITK and uninhibited signal is defined in the presence of vehicle (2% DMSO) alone. Compounds were evaluated in an 11 point dose-response ranging from 20 uM to 0.34 nM. The binding assays are performed under two preincubation conditions to evaluate time dependence of inhibition. For the pre-incubation assay, ITK and Eu-anti-GST antibody are pre-incubated with compound or vehicle for two hours prior to the addition of kinase tracer. The non-preincubated assay is run under conditions where ITK and Eu-anti-GST antibody are added to a mixture of compound and kinase tracer. IC50 values of compounds are determined using a 4 parameter logistical fit of emission ratio as a function of the concentration of compound.

[2] = tested on: ITK phosphorylation of its substrate, PLCγ1, at Y783; assay: ITK target modulation assay (phospho-Y783 PLCγ1 immunoblot in Jurkat T cells); assay type: cell-based; conditions: 2 hours compound, CD3/CD28 Dynabeads stimulation 100 sec, anti-phospho-Y783 PLCγ1 immunoblot, read-out: PLC-γ Inhibition IC50
Procedure: Target modulation was based upon the ability of a compound to inhibit ITK phosphorylation of its substrate, PLCγ1, at […]. Human Jurkat T cells were placed in snap-cap polypropylene tubes at 4 million per tube in 800 μL medium (RPMI1640 with 10% heat inactivated serum and […] 2-mercaptoethanol and supplemented with glutamine/penicillin/streptomycin). Compounds were added as 100 μL of 10× working stock solutions in medium with 1% DMSO (or medium with 1% DMSO for controls) and placed in a 37° C. incubator for 2 hours. Stimulation was carried out using CD3/CD28 Dynabeads to activate the T cell receptor and mimic antigen presenting cells. Beads were added for 100 sec at a ratio of 1 bead per cell, in 100 μL medium (or medium alone for unstimulated control). Starting at 70 sec, cells and beads were pelleted in a microfuge for 15 sec, the supernatant aspirated, and 50 μL lysis buffer was added per tube and mixed with the pellet at the 100 sec time point. Tubes were placed on a rotator for 30 min at 4° C., and cell debris was pelleted in a microfuge. Supernatant was mixed 1:1 with 2× Sample Buffer and subjected to SDS-polyacrylamide gel electrophoresis. After transfer to nitrocellulose, immunoblotting was done with anti-phospho-[…] PLCγ1 antibody. Immunoblots were visualized with ECL using horseradish peroxidase conjugated secondary antibody.

Row | Structure (SMILES) | IC50 [1] | IC50 ([2]; Homo sapiens, Jurkat, 2 h) | IC50 ([2]; Human Jurkat T cells)
1 | CN(C)C/C=C/C(=O)Nc1cncc(-c2cnc3[nH]cc(-c4cccc(C#N)c4)c3c2)c1 [Example 20, (E)-N-(5-(3-(3-cyanophenyl)-1H-pyrrolo[2,3-b]pyridin-5-yl)pyridin-3-yl)-4-(dimethyl-amino)but-2-enamide] | ≤ 100 nM | ≤ 1000 nM | –
2 | C=CC(=O)Nc1cc(-c2cnc3[nH]cc(-c4ccnc(C#N)c4)c3c2)cc(-c2cnn(C)c2)c1 [Example 21, N-(3-(3-(2-cyano-pyridin-4-yl)-1H-pyrrolo[2,3-b]pyridin-5-yl)-5-(1-methyl-1H-pyrazol-4-yl)-phenyl)acrylamide] | ≤ 100 nM | ≤ 1000 nM | –
3 | C=CC(=O)Nc1cc(-c2cnc3[nH]cc(-c4ccncn4)c3c2)cc(C(F)(F)F)c1 [Example 22, N-(3-(3-(pyrimidin-4-yl)-1H-pyrrolo-[2,3-b]pyridin-5-yl)-5-(trifluoro-methyl)phenyl)-acrylamide] | ≤ 100 nM | ≤ 1000 nM | –
4 | C=CC(=O)Nc1cc(-c2cnc3[nH]cc(-c4ccnc(C)c4)c3c2)cc(C(F)(F)F)c1 [Example 23, N-(3-(3-(2-methyl-pyridin-4-yl)-1H-pyrrolo[2,3-b]-pyridin-5-yl)-5-(trifluoromethyl)-phenyl)acrylamide] | ≤ 100 nM | ≤ 1000 nM | –
5 | C=CC(=O)Nc1cccc(-c2cnc3[nH]cc(-c4cncc(NC)c4)c3c2)c1 [Example 24, N-(3-(3-(5-(methylamino)-pyridin-3-yl)-1H-pyrrolo[2,3-b]-pyridin-5-yl)-phenyl)acrylamide] | ≤ 100 nM | ≤ 1000 nM | –
6 | C=CC(=O)Nc1cc(-c2cnc3[nH]cc(-c4ccnc5[nH]ccc45)c3c2)cc(C(F)(F)F)c1 [Example 25, N-(3-(1H,1′H-[3,4′-bipyrrolo-[2,3-b]pyridin]-5-yl)-5-(trifluoro-methyl)phenyl)-acrylamide] | ≤ 1000 nM | ≤ 1000 nM | –
7 | C=CC(=O)Nc1cc(OC)cc(-c2cnc3[nH]cc(-c4ccnc(OC)c4)c3c2)c1 [Example 26, N-(3-methoxy-5-(3-(2-methoxy-pyridin-4-yl)-1H-pyrrolo[2,3-b]-pyridin-5-yl)-phenyl)acrylamide] | ≤ 100 nM | ≤ 1000 nM | –
8 | CNc1nccc(-c2c[nH]c3ncc(-c4cccc(NC(=O)/C=C/CN(C)C)c4)cc23)n1 [Example 27, (E)-4-(dimethyl-amino)-N-(3-(3-(2-(methylamino)-pyrimidin-4-yl)-1H-pyrrolo[2,3-b]pyridin-5-yl)phenyl)but-2-enamide] | ≤ 100 nM | 1000 to 5000 nM | –
9 | C=CC(=O)Nc1cc(OC)cc(-c2cnc3[nH]cc(-c4ccnc(C)c4)c3c2)c1 [Example 28, N-(3-methoxy-5-(3-(2-methyl-pyridin-4-yl)-1H-pyrrolo[2,3-b]-pyridin-5-yl)-phenyl)acrylamide] | ≤ 100 nM | ≤ 1000 nM | –
10 | C=CC(=O)Nc1cc(OC)cc(-c2cnc3[nH]cc(-c4ccnc(F)c4)c3c2)c1 [Example 29, N-(3-(3-(2-fluoro-pyridin-4-yl)-1H-pyrrolo[2,3-b]-pyridin-5-yl)-5-methoxyphenyl)-acrylamide] | ≤ 100 nM | ≤ 1000 nM | –
11 | C=CC(=O)Nc1cc(OC)cc(-c2cnc3[nH]cc(-c4ccncn4)c3c2)c1 [Example 30, N-(3-methoxy-5-(3-(pyrimidin-4-yl)-1H-pyrrolo-[2,3-b]pyridin-5-yl)phenyl)-acrylamide] | ≤ 100 nM | ≤ 1000 nM | –
12 | COc1cc(NC(=O)/C=C/CN(C)C)cc(-c2cnc3[nH]cc(-c4ccnc5[nH]ccc45)c3c2)c1 [Example 31, (E)-N-(3-(1H,1′H-[3,4′-bipyrrolo[2,3-b]pyridin]-5-yl)-5-methoxyphenyl)-4-(dimethylamino)-but-2-enamide] | ≤ 100 nM | ≤ 1000 nM | –
13 | CN(C)C/C=C/C(=O)Nc1cc(-c2cnc3[nH]cc(-c4ccnc(F)c4)c3c2)cc(C(F)(F)F)c1 [Example 32, (E)-4-(dimethyl-amino)-N-(3-(3-(2-fluoropyridin-4-yl)-1H-pyrrolo-[2,3-b]pyridin-5-yl)-5-(trifluoro-methyl)phenyl)-but-2-enamide] | ≤ 100 nM | ≤ 1000 nM | –
14 | Cc1cc(-c2c[nH]c3ncc(-c4cc(NC(=O)/C=C/CN(C)C)cc(C(F)(F)F)c4)cc23)ccn1 [Example 33, (E)-4-(dimethyl-amino)-N-(3-(3-(2-methylpyridin-4-yl)-1H-pyrrolo-[2,3-b]-pyridin-5-yl)-5-(trifluoro-methyl)phenyl)-but-2-enamide] | ≤ 100 nM | ≤ 1000 nM | –
15 | C=CC(=O)Nc1cncc(-c2cnc3[nH]cc(-c4ccnc(C#N)c4)c3c2)c1 [Example 34, N-(5-(3-(2-cyano-pyridin-4-yl)-1H-pyrrolo[2,3-b]-pyridin-5-yl)-pyridin-3-yl)-acrylamide] | ≤ 100 nM | ≤ 1000 nM | –
16 | C=CC(=O)Nc1cc(-c2cnc3[nH]cc(-c4ccnc(C#N)c4)c3c2)cc(C(F)(F)F)c1 [Example 35, N-(3-(3-(2-cyano-pyridin-4-yl)-1H-pyrrolo[2,3-b]-pyridin-5-yl)-5-(trifluoromethyl)-phenyl)acrylamide] | ≤ 100 nM | ≤ 1000 nM | –
17 | CN(C)C/C=C/C(=O)Nc1cncc(-c2cnc3[nH]cc(-c4ccnc(C#N)c4)c3c2)c1 [Example 36, (E)-N-(5-(3-(2-cyanopyridin-4-yl)-1H-pyrrolo-[2,3-b]pyridin-5-yl)pyridin-3-yl)-4-(dimethyl-amino)but-2-enamide] | ≤ 100 nM | – | ≤ 1000 nM
18 | COc1cc(NC(=O)/C=C/CN(C)C)cc(-c2cnc3[nH]cc(-c4ccnc(C)c4)c3c2)c1 [Example 37] | ≤ 100 nM | ≤ 1000 nM | –
19 | COc1cc(NC(=O)/C=C/CN(C)C)cc(-c2cnc3[nH]cc(-c4ccnc(F)c4)c3c2)c1 [Example 38, (E)-4-(dimethyl-amino)-N-(3-(3-(2-fluoropyridin-4-yl)-1H-pyrrolo-[2,3-b]pyridin-5-yl)-5-methoxy-phenyl)but-2-enamide] | ≤ 100 nM | ≤ 1000 nM | –
20 | COc1cc(NC(=O)/C=C/CN(C)C)cc(-c2cnc3[nH]cc(-c4ccnc(C#N)c4)c3c2)c1 [Example 39, (E)-N-(3-(3-(2-cyanopyridin-4-yl)-1H-pyrrolo-[2,3-b]pyridin-5-yl)-5-methoxy-phenyl)-4-(dimethylamino)-but-2-enamide] | ≤ 100 nM | ≤ 1000 nM | –
21 | CN(C)C/C=C/C(=O)Nc1cc(-c2cnc3[nH]cc(-c4ccnc(C#N)c4)c3c2)cc(C(F)(F)F)c1 [Example 40, (E)-N-(3-(3-(2-cyanopyridin-4-yl)-1H-pyrrolo-[2,3-b]pyridin-5-yl)-5-(trifluoro-methyl)phenyl)-4-(dimethyl-amino)but-2-enamide] | ≤ 100 nM | ≤ 1000 nM | –
22 | C=CC(=O)Nc1cc(OC)cc(-c2cnc3[nH]cc(-c4ccnc(NC)n4)c3c2)c1 [Example 41, N-(3-methoxy-5-(3-(2-(methyl-amino)pyrimidin-4-yl)-1H-pyrrolo-[2,3-b]pyridin-5-yl)phenyl)acryl-amide] | ≤ 100 nM | ≤ 1000 nM | –
